Consider 1 molecule from paper PMC11157767 (Molecular Cancer, 2024).

This assay has as its system TFG-MET allograft tumors. Kind of assay: RNA-sequencing, differential expression and GSEA of TFG-MET allograft tumors. Conditions: RNA-sequencing of treated allograft tumors. The format is in vivo, mouse. How it is done: Error bars display standard error of mean, statistical significance was determined using t-test analysis. (****;p<0.0001, ***;p<0.001, **;p<0.01, *;p<0.05). […] Each dot represents an individual replicate. Error bars display standard error of the mean.
Each dot represents one gene.

Regarding `C[C@@H](Oc1cc(-c2cnn(C3CCNCC3)c2)cnc1N)c1c(Cl)ccc(F)c1Cl` [Crizotinib], the “expression of Mapk signature genes in tumors” value is reported as “more heterogenous expression”.
